{"source": "paper PMC3914206", "assay_type_in_all_cases": "binding", "conditions_in_all_cases": "Compound Concentration 10 µM", "key": {"[1]": {"molecular_target": "T1, panel of 442 kinases (Homo sapiens, UniProt O43283)", "T1 construct": "purchased KINOMEscan", "T1 sequence (O43283 1-966)": "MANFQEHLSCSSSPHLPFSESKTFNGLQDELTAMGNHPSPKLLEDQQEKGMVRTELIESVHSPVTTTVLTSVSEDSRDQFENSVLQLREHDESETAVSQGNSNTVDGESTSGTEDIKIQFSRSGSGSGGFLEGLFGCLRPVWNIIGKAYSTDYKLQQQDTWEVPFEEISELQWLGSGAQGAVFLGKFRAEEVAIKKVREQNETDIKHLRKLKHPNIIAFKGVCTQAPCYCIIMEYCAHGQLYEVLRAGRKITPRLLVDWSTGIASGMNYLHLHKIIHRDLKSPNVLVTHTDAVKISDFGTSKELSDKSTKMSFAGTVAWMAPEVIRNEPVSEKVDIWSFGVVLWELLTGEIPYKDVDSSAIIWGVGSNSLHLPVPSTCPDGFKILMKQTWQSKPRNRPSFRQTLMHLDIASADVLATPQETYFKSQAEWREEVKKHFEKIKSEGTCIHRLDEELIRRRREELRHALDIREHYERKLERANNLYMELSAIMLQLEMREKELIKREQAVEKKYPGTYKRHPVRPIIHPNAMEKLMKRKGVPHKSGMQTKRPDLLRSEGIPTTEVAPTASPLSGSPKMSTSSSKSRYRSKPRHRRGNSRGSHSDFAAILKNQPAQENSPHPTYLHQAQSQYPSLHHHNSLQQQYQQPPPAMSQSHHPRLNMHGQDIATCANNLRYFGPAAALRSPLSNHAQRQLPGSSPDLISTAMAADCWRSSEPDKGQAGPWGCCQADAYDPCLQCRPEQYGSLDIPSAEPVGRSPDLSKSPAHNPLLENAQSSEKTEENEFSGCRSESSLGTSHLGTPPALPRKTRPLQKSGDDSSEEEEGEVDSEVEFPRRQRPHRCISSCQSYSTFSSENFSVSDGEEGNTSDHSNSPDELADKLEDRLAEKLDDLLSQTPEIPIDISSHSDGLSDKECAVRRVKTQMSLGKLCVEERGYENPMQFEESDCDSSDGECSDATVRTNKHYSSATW", "source_text": "(§1) We assessed the selectivity of members of this scaffold using the KINOMEscan methodology across a near comprehensive panel of 442 kinases [[18,27]]."}, "[2]": {"molecular_target": "T2, panel of 442 kinases (Homo sapiens, UniProt P00533, DEL746-750)", "T2 construct": "purchased KINOMEscan", "T2 sequence (P00533 with tags, fused parts or gaps DEL746-750)": "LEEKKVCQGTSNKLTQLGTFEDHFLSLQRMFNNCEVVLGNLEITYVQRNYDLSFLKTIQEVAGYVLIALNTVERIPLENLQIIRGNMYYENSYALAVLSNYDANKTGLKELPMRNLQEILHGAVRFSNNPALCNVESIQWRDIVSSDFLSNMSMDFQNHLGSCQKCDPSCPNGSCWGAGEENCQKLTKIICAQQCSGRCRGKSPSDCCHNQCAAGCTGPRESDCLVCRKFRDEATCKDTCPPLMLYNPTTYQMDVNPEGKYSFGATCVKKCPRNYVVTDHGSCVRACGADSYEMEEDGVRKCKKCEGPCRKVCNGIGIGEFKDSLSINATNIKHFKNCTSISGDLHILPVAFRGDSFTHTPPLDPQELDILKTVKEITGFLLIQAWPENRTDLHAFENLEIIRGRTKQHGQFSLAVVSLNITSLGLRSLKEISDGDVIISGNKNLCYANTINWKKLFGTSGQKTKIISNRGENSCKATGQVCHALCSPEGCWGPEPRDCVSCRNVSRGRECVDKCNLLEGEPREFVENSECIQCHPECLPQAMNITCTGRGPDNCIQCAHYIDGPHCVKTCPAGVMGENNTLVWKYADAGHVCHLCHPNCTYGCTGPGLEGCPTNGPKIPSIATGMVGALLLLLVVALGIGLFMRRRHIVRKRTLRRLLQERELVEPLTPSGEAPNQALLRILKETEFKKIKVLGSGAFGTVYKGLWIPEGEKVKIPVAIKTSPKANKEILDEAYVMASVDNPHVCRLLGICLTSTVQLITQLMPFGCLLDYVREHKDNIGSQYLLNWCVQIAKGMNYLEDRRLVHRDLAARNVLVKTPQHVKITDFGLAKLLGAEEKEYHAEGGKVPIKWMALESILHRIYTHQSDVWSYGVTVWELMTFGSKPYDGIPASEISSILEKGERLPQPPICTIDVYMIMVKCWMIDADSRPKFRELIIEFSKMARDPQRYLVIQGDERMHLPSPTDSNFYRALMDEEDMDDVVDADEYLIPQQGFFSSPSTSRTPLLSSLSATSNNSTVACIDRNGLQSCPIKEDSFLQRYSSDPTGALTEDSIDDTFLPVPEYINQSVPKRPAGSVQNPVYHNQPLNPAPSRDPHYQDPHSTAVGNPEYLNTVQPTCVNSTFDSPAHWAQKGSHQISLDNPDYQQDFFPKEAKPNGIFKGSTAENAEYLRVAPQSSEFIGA", "source_text": "as §1"}, "[3]": {"molecular_target": "T3, panel of 442 kinases (Homo sapiens, UniProt Q5VT25)", "T3 construct": "purchased KINOMEscan", "T3 sequence (Q5VT25 whole entry)": "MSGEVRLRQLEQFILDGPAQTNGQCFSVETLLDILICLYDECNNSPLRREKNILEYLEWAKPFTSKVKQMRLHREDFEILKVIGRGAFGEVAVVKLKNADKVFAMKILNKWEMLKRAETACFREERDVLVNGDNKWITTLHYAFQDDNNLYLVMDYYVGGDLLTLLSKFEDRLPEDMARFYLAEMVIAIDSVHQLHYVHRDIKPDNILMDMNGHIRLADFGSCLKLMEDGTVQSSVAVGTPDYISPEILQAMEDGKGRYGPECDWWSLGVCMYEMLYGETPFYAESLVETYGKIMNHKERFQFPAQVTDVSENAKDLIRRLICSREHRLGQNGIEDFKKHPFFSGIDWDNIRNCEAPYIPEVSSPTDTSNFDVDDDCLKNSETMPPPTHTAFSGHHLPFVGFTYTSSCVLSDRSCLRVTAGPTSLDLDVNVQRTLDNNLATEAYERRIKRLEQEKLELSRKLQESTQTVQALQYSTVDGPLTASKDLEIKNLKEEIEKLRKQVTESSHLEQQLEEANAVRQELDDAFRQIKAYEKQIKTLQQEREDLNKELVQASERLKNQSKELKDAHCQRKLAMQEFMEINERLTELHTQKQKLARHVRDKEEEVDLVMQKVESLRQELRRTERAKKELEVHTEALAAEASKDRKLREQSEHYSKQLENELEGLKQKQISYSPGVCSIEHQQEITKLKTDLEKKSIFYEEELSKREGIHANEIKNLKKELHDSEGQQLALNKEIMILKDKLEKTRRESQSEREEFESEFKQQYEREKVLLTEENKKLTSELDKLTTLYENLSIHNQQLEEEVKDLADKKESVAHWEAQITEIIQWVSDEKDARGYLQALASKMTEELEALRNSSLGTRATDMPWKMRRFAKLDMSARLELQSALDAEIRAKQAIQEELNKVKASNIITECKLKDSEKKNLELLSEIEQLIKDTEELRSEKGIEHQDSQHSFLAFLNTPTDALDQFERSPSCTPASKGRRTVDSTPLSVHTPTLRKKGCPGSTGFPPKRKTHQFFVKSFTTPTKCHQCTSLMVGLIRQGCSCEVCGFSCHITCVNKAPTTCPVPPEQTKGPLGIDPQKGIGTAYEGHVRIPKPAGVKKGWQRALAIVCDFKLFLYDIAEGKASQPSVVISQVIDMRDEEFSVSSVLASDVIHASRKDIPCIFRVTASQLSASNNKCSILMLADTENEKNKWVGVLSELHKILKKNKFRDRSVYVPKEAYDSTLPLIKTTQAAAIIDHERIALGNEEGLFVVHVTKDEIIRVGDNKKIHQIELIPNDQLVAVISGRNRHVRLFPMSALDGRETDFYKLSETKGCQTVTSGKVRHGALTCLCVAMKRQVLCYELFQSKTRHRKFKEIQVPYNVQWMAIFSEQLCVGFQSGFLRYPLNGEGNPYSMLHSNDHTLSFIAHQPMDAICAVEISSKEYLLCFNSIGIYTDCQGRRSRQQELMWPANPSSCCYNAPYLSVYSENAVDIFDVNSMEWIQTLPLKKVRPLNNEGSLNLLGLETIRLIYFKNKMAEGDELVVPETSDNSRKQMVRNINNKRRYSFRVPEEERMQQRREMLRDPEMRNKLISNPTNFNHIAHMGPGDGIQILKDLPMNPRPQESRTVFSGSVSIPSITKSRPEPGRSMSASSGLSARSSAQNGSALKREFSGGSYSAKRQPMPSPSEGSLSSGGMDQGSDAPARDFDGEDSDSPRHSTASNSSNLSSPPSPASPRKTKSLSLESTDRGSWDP", "source_text": "as §1"}}, "data": [{"compound": "CCOc1cc(C(=O)N2CCC(N3CCN(C)CC3)CC2)ccc1Nc1ncc2c(n1)N(C1CCCC1)c1ccccc1C(=O)N2C", "note": "[Compound 26]", "values": [{"measurement": "KINOMEscan: LZK", "setting": "[1]", "value": 92}, {"measurement": "KINOMEscan: EGFR(E746-A750del)", "setting": "[2]", "value": 100}, {"measurement": "KINOMEscan: MRCKA", "setting": "[3]", "value": 100}]}, {"compound": "COc1cc(C(=O)N2CCC(N3CCN(C)CC3)CC2)ccc1Nc1ncc2c(n1)N(C)c1ccccc1C(=O)N2C", "note": "[15 (LRRK2-IN-1)]", "values": [{"measurement": "KINOMEscan: LZK", "setting": "[1]", "value": 100}, {"measurement": "KINOMEscan: EGFR(E746-A750del)", "setting": "[2]", "value": 72}, {"measurement": "KINOMEscan: MRCKA", "setting": "[3]", "value": 100}]}, {"compound": "COc1cc(C(=O)N2CCC(N3CCN(C)CC3)CC2)ccc1Nc1ncc2c(n1)N(C1CCCC1)c1ccccc1C(=O)N2C", "note": "[Compound 25, 11-cyclopentyl-2-((2-methoxy-4-(4-(4-methylpiperazin-1-yl)piperidine-1-carbonyl)phenyl)amino)-5-methyl-5H-benzo[e]pyrimido[5,4-b][1,4]diazepin-6(11H)-one]", "values": [{"measurement": "KINOMEscan: LZK", "setting": "[1]", "value": 100}, {"measurement": "KINOMEscan: EGFR(E746-A750del)", "setting": "[2]", "value": 80}, {"measurement": "KINOMEscan: MRCKA", "setting": "[3]", "value": 100}]}]}
